Read-outs that look alike come from different tables or passages of the source.
How the values were obtained:
[1] = test system: cancer cell lines with wild-type p53 / mutated or deleted p53 (ATCC); test: Cell growth assay (WST-8), other cancer cell lines; assay type: cell-based; settings: Homo sapiens
[2] = test system: Isogenic HCT-116 colon cancer cell lines; test: cells; assay type: cell-based; settings: Homo sapiens;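 further: cells grown in 96-well plates in McCoy's 5A medium with 10% FBS, exposed to compound for 4 days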
Description: Cells were seeded in 96-well flat bottom cell culture plates at a density of 2−3×10^3 cells/well with compounds and incubated for 4 days.

[3] = In vitro microsomal stability, rat; assay type: in vitro ADME
[4] = molecular target: recombinant human His-tagged MDM2 protein (residues 1-118) (Homo sapiens (Human), UniProt Q00987); test: Fluorescence-polarization MDM2 binding assay;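 further: fluorescence polarization read after three hours of incubation in potassium phosphate buffer containing bovine gamma globulin and Triton X-100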
Sequence of recombinant human His-tagged MDM2 protein (residues 1-118) (Q00987 1-118): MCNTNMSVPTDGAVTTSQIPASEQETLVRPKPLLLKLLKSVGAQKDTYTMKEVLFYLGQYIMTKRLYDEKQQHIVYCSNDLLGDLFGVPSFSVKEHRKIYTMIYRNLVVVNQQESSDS

[5] = LNCaP, Table 19A, LNCAP cells, p53 wild-type, cell growth, read-out: LNCAP (p53 wild-type) IC50
[6] = PC-3, Table 19A, PC-3 cells, deleted p53, cell growth, read-out: PC-3 (deleted p53) IC50
[7] = HCT-116, read-out: HCT-116 (p53-/-) IC50, Table 19A, HCT-116 p53-/-, cell growth
[8] = HCT-116, read-out: HCT-116 (p53 wild-type) IC50, Table 19A, HCT-116 p53 wild-type, cell growth
[9] = Table 19A, FP binding assay, read-out: MDM2 IC50
[10] = SJSA-1, Table 19A, SJSA-1 cells, p53 wild-type, cell growth, read-out: SJSA-1 (p53 wild-type) IC50
[11] = LNCaP, Table 19B, LNCaP cells, read-out: Inhibition of cell growth IC50, LNCaP
[12] = PC-3, Table 19B, PC3 cells, read-out: Inhibition of cell growth IC50, PC3
[13] = HCT-116, read-out: Inhibition of cell growth IC50, HCT116 p53 KO, Table 19B, HCT116 p53 KO
[14] = HCT-116, read-out: Inhibition of cell growth IC50, HCT116 p53 WT, Table 19B, HCT116 p53 WT
[15] = Table 19B, read-out: Binding affinities to MDM2 protein as determined by FP based assay IC50
[16] = LNCaP, Table 19D, LNCaP cells, read-out: LNCaP IC50
[17] = PC-3, Table 19D, PC3 cells, read-out: PC3 IC50
[18] = HCT-116, read-out: HCT116p53KO IC50, Table 19D, HCT116 p53KO
[19] = HCT-116, read-out: HCT116p53WT IC50, Table 19D, HCT116 p53WT
[20] = Table 19D, read-out: MDM2 Binding Affinities IC50

| Compound | IC50 [1, 5] [nM] | IC50 [1, 6] [nM] | IC50 [2, 7] [nM] | IC50 [2, 8] [nM] | % of compound remaining when incubated in rat liver microsomes ([3]; Table 17, 0 min) [%] | % of compound remaining when incubated in rat liver microsomes ([3]; Table 17, 4 min) [%] | % of compound remaining when incubated in rat liver microsomes ([3]; Table 17, 6 min) [%] | % of compound remaining when incubated in rat liver microsomes ([3]; Table 17, 10 min) [%] | % of compound remaining when incubated in rat liver microsomes ([3]; Table 17, 15 min) [%] | % of compound remaining when incubated in rat liver microsomes ([3]; Table 17, 30 min) [%] | IC50 [4, 9] [nM] | IC50 [1, 10] [nM] | other results |
| --- | --- | --- | --- | --- | --- | --- | --- | --- | --- | --- | --- | --- | --- |
| CN1CCN(CCNC(=O)[C@@H]2N[C@H](CC(C)(C)C)[C@]3(C(=O)Nc4cc(Cl)c(F)cc43)[C@H]2c2cccc(Cl)c2)CC1 [MI-749] | 1000 ± 100 | 5000 ± 500 | 7800 ± 1300 | 1200 ± 400 | 100 | 82.9 | 58.4 | 54.2 | 42.7 | 23 | < 1000 | – | – |
| CC(C)(C)C[C@H]1N[C@@H](C(=O)NCCCN2CCCC2)[C@H](c2cccc(Cl)c2F)[C@@]12C(=O)Nc1cc(Cl)c(F)cc12 [MI-764] | 1000 ± 400 | 2400 ± 400 | 3800 ± 700 | 500 ± 200 | 100 | 87.8 | 76.5 | 66.5 | 63.9 | 55.8 | < 1000 | 1200 ± 300 | – |
| CC(C)(C)C[C@H]1N[C@@H](C(=O)NCCCN2CCCCC2)[C@H](c2cccc(Cl)c2F)[C@@]12C(=O)Nc1cc(Cl)ccc12 [MI-519-44] | 1300 ± 200 | 2600 ± 100 | 2800 ± 700 | 800 | 100 | 85.6 | 74.7 | 66.4 | 61.2 | 42.5 | < 10000 | 900 ± 100 | – |
| CC(C)(C)C[C@H]1N[C@@H](C(=O)NCCN2CCNCC2)[C@H](c2cccc(Cl)c2)[C@@]12C(=O)Nc1cc(Cl)c(F)cc12 [MI-748] | 800 | 4100 ± 100 | 7600 ± 1000 | 900 ± 700 | 100 | 79.1 | 69.7 | 61.5 | 49.9 | 43.7 | < 1000 | – | – |
| CN1CCN(CCCNC(=O)[C@@H]2N[C@H](CC(C)(C)C)[C@]3(C(=O)Nc4cc(Cl)c(F)cc43)[C@H]2c2cccc(Cl)c2)CC1 [MI-751] | 700 ± 200 | 3900 ± 900 | 6200 ± 1200 | 1000 ± 200 | 100 | 83.1 | 62.9 | 50.1 | 41.6 | 31.1 | < 1000 | – | – |
| CNC(=O)[C@@H]1N[C@H](CC(C)(C)C)[C@]2(C(=O)Nc3cc(Cl)c(F)cc32)[C@H]1c1cccc(Cl)c1 [MI-519-40] | 1000 ± 100 | 14600 ± 2700 | 18500 ± 5500 | 1000 ± 100 | 100 | 84.2 | 70.1 | 59.6 | 58.7 | 57.6 | < 1000 | 1300 ± 300 | microsomal stability (in words) ([3]; rat liver microsomes): improved microsomal stability over MI-219 |
| CC(C)(C)C[C@H]1N[C@@H](C(=O)NCCCN2CCCC2)[C@H](c2cccc(Cl)c2)[C@@]12C(=O)Nc1cc(Cl)c(F)cc12 [MI-519-38] | 1000 ± 300 | 3100 ± 400 | 5300 ± 1600 | 1400 ± 600 | – | – | – | – | – | – | < 1000 | 2100 ± 100 | % of compound remaining when incubated in rat liver microsomes at indicated time (min) ([3]; 0 min): 100%; % of compound remaining when incubated in rat liver microsomes at indicated time (min) ([3]; 4 min): 91.5%; % of compound remaining when incubated in rat liver microsomes at indicated time (min) ([3]; 6 min): 85.4%; % of compound remaining when incubated in rat liver microsomes at indicated time (min) ([3]; 10 min): 82.4%; % of compound remaining when incubated in rat liver microsomes at indicated time (min) ([3]; 15 min): 80.8%; % of compound remaining when incubated in rat liver microsomes at indicated time (min) ([3]; 30 min): 73.2% |
| CC(C)N1CCN(CCCNC(=O)[C@@H]2N[C@H](CC(C)(C)C)[C@]3(C(=O)Nc4cc(Cl)ccc43)[C@H]2c2cccc(Cl)c2F)CC1 [MI-519-45] | 1000 ± 200 | 5100 ± 900 | 6900 ± 1900 | 900 ± 300 | 100 | 81.1 | 59.6 | 50.7 | 44.3 | 38.5 | < 10000 | 800 ± 200 | – |
| CC(C)(C)C[C@H]1N[C@@H](C(=O)NCCCN2CCN(C3CC3)CC2)[C@H](c2cccc(Cl)c2F)[C@@]12C(=O)Nc1cc(Cl)ccc12 [MI-519-47] | 1100 ± 300 | 5700 ± 600 | 7800 ± 900 | 1100 ± 200 | 100 | 80.1 | 61.1 | 45.3 | 38.1 | 34.3 | < 10000 | 1100 | – |
| CC(C)(C)C[C@H]1N[C@@H](C(N)=O)[C@H](c2cccc(Cl)c2)[C@@]12C(=O)Nc1cc(Cl)c(F)cc12 [MI-519-41] | 1200 | 14900 ± 1100 | 17900 ± 2200 | 1000 ± 300 | 100 | 84.2 | 80.4 | 66.1 | 55.4 | 42.9 | < 1000 | 1300 ± 400 | – |
| CC(C)CC(C)(C)C[C@H]1N[C@@H](C(=O)NCC[C@H](O)CO)[C@H](c2cccc(Cl)c2F)[C@@]12C(=O)Nc1cc(F)c(F)cc12 [MI-732] | – | – | – | – | – | – | – | – | – | – | – | – | IC50 [1, 11]: 700 nM; IC50 [1, 12]: 5800 nM; IC50 [2, 13]: 10200 ± 4800 nM; IC50 [2, 14]: 700 ± 100 nM; IC50 [4, 15]: < 1000 nM |
| CC(C)(C)C[C@H]1N[C@@H](C(=O)NCC[C@H](O)CO)[C@H](c2cccc(Cl)c2F)[C@@]12C(=O)Nc1cc(F)c(F)cc12 [MI-519-10] | – | – | – | – | – | – | – | – | – | – | – | – | IC50 [1, 16]: < 3000 nM; IC50 [1, 17]: > 10000 nM; IC50 [2, 18]: > 10000 nM; IC50 [2, 19]: < 3000 nM; IC50 [4, 20]: < 3000 nM |
| CC(C)(C)C[C@H]1N[C@@H](C(=O)NCC[C@H](O)CO)[C@H](c2ccc(F)c(Cl)c2)[C@@]12C(=O)Nc1cc(F)c(F)cc12 [MI-519-8] | – | – | – | – | – | – | – | – | – | – | – | – | IC50 [1, 16]: < 5000 nM; IC50 [1, 17]: > 10000 nM; IC50 [2, 18]: > 10000 nM; IC50 [2, 19]: < 5000 nM; IC50 [4, 20]: < 3000 nM |
| CC(C)(C)C[C@H]1N[C@@H](C(=O)NCC[C@H](O)CO)[C@H](c2cccc(F)c2)[C@@]12C(=O)Nc1cc(F)c(F)cc12 [MI-519-11] | – | – | – | – | – | – | – | – | – | – | – | – | IC50 [1, 16]: > 5000 nM; IC50 [1, 17]: > 10000 nM; IC50 [2, 18]: > 10000 nM; IC50 [2, 19]: > 5000 nM; IC50 [4, 20]: > 5000 nM |
| CC(C)(C)C[C@H]1N[C@@H](C(=O)NC2CCC(N)CC2)[C@H](c2cccc(Cl)c2)[C@@]12C(=O)Nc1cc(Cl)c(F)cc12 (some centres unmarked) [MI-776] | 2400 | – | – | 2700 | – | – | – | – | – | – | < 1000 | 3200 | – |
| CC(C)(C)C[C@H]1N[C@@H](C(=O)N2CCN(C(=O)C3CC3)CC2)[C@H](c2cccc(Cl)c2)[C@@]12C(=O)N(C(=O)C1CC1)c1cc(Cl)c(F)cc12 [MI-743B] | – | – | – | – | – | – | – | – | – | – | – | – | IC50 [1, 11]: > 1000 nM; IC50 [1, 12]: > 1000 nM; IC50 [2, 13]: > 1000 nM; IC50 [2, 14]: > 1000 nM; IC50 [4, 15]: > 100000 nM |
| CC(C)(C)C[C@H]1N[C@@H](C(=O)NCC[C@H](O)CN)[C@H](c2cccc(Cl)c2)[C@@]12C(=O)Nc1cc(Cl)c(F)cc12 [MI-319-25] | – | – | – | – | – | – | – | – | – | – | – | – | IC50 ([1]; LNCaP, Table 19C, LNCaP cells, read-out: Cell growth inhibition using WST assay, LNCaP IC50): < 5000 nM; IC50 ([1]; PC-3, Table 19C, PC3 cells, read-out: Cell growth inhibition using WST assay, PC3 IC50): > 10000 nM; IC50 ([2]; HCT-116, read-out: Cell growth inhibition using WST assay, HCT116 p53KO IC50, Table 19C, HCT116 p53KO): > 10000 nM; IC50 ([2]; HCT-116, read-out: Cell growth inhibition using WST assay, HCT116 p53WT IC50, Table 19C, HCT116 p53WT): < 5000 nM; IC50 ([4]; Table 19C, read-out: Bidning affinities to MDM2 as determined using FP assay IC50): < 1000 nM |
